According to US20120238615A1, “Alpha adrenergic receptor modulators” (Allergan, Inc., priority 2009, published 2012):

Target: T1, alpha-2C (Homo sapiens, UniProt P18825)
T1 construct: expressed in transfected cells
T1 sequence (P18825 1-462): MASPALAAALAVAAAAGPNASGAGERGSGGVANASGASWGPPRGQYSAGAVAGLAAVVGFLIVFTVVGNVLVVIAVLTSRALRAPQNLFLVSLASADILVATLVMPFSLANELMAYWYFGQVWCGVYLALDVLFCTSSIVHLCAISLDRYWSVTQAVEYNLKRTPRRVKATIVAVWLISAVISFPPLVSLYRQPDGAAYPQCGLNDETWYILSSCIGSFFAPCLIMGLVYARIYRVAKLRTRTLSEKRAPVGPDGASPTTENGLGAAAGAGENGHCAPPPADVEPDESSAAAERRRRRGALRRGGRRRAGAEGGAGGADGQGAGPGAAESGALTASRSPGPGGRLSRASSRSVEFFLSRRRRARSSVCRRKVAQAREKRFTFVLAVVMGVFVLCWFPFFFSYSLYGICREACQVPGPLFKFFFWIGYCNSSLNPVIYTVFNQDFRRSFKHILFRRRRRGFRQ
Test: FLIPR calcium assay for alpha adrenergic activity
Format: cell-based
Conditions: cells expressing alpha-2C and G-protein (Gqi5 or G16); for EC50: fluo-4 calcium signal, agonist, read-out: Potency (nM) Alpha 2C (EC50); for efficacy Alpha 2C (relative efficacy compared to a standard full agonist, in parentheses): relative to norepinephrine
Description: Compounds described herein were synthesized and tested for alpha adrenergic activity using a Fluorometric Imaging plate Reader (FLIPR) assay (Princen et al., 2003, Cytometry Part A. 51, pp. 35-45). Cells expressing the receptor of interest (alpha-2C) and a G-protein (Gqi5 or G16) are loaded with fluo-4, a calcium sensitive dye. After removal of excess dye by washing, the cells are placed in the FLIPR TETRA instrument. Baseline fluorescence readings are taken prior to addition of the compounds. Agonists will trigger the receptor to interact with the G-protein, leading to an increase in intracellular calcium. The increase in intracellular calcium causes an increase in the fluorescence of the cells, due to the presence of fluo-4. This fluorescence increase is recorded by the FLIPR TETRA. After the calcium transient signal has decreased towards baseline, the standard agonist norepinephrine is added. If the compound is an antagonist, an initial calcium signal will not be generated and the antagonist will prevent the generation of a calcium signal from norepinephrine. The level of fluorescence is compared to that of norepinephrine, and the EC50 of the compound determined by curve fitting. […] The compounds described herein activate alpha adrenergic receptors.

Row | Structure (SMILES) | EC50 [nM] | efficacy Alpha 2C (relative efficacy compared to a standard full agonist, in parentheses)
1 | Cc1cccc(NC2=NCCC2)c1Br [Compound 1, N-(2-bromo-3-methyl-phenyl)-3,4-dihydro-2H-pyrrol-5-amine] | 663 | (1)
2 | COc1c(Cl)cccc1NC1=NCCC1 [Compound 2, N-(3-chloro-2-methoxyphenyl)-3,4-dihydro-2H-pyrrol-5-amine] | 975 | (1)
3 | Cc1c(Cl)cccc1NC1=NCCC1 [Compound 3, N-(3-chloro-2-methylphenyl)-3,4-dihydro-2H-pyrrol-5-amine] | 71 | (1)
4 | Cc1cccc(NC2=NCCC2)c1Cl [Compound 4, N-(2-chloro-3-methylphenyl)-3,4-dihydro-2H-pyrrol-5-amine] | 635 | (1)
5 | COc1c(C)cccc1NC1=NCCC1 [Compound 5, N-(2-methoxy-3-methylphenyl)-3,4-dihydro-2H-pyrrol-5-amine] | 243 | (1)
6 | Fc1c(Cl)cccc1NC1=NCCC1 [Compound 6, N-(3-chloro-2-fluorophenyl)-3,4-dihydro-2H-pyrrol-5-amine] | 26 | (1)
7 | COc1cccc(NC2=NCCC2)c1Br [Compound 7, N-(2-bromo-3-methoxyphenyl)-3,4-dihydro-2H-pyrrol-5-amine] | 32 | (1)
8 | COc1cccc(NC2=NCCC2)c1C [Compound 8, N-(3-methoxy-2-methylphenyl)-3,4-dihydro-2H-pyrrol-5-amine] | 186 | (1)
9 | Cc1c(F)cccc1NC1=NCCC1 [Compound 9, N-(3-fluoro-2-methylphenyl)-3,4-dihydro-2H-pyrrol-5-amine] | 756 | (1)
10 | Cc1c(Br)cccc1NC1=NCCC1 [Compound 10, N-(3-bromo-2-methylphenyl)-3,4-dihydro-2H-pyrrol-5-amine] | 288 | (1)
11 | Clc1ccccc1NC1=NCCC1 [Compound 11, N-(2-chlorophenyl)-3,4-dihydro-2H-pyrrol-5-amine] | 709 | (1)
12 | Clc1cccc(Cl)c1NC1=NCCC1 [Compound 12, N-(2,6-dichlorophenyl)-3,4-dihydro-2H-pyrrol-5-amine] | 44 | (1)
13 | Cc1ccccc1NC1=NCCC1 [Compound 13, N-(2-methylphenyl)-3,4-dihydro-2H-pyrrol-5-amine] | 743 | (1)
14 | FC(F)(F)c1ccccc1NC1=NCCC1 [Compound 14, N-[2-(trifluoromethyl)phenyl]-3,4-dihydro-2H-pyrrol-5-amine] | 796 | (1)
15 | Cc1cccc(C)c1NC1=NCCC1 [Compound 15, N-(2,6-dimethylphenyl)-3,4-dihydro-2H-pyrrol-5-amine] | 348 | (1)
16 | Cc1cccc(NC2=NCCC2)c1C [Compound 16, N-(2,3-dimethylphenyl)-3,4-dihydro-2H-pyrrol-5-amine] | 118 | (1)
